Assay results taken from patent US11807650B2, “NMDA receptor modulators and uses thereof” (Novartis AG, priority 2016, dated 2023).

The compounds below were run against T1, human GRIN1 (variant NR1-3) and GRIN2D expressed in HEK293 cells (Homo sapiens, UniProt O15399) (assay: GluN2D PAM CIQ fluorescence assay (Fluo-8 calcium, FDSS 6000)). Conditions: relative to CIQ (100 uM) = 100%, read-out: NR2D Percent CIQ Avg Max Measured Effect.
T1 construct: GenScript (GRIN2D synthesis) SC115601; host or cells: HEK293
Assay type: cell-based
Protocol: GluN2D PAM CIO Flourescence AssayHEK293 cells were transfected to express human GRIN1 (variant NR1-3, Origene, SKU #: SC115601, Rockville, Md.) and GRIN2D (NCBI locus NM_000836, sequence optimized and synthesized by GenScript) and grown as an adherent monolayer at 37° C., 5% CO2 in DMEM/Ham's F12+10% FBS (Hyclone SH3007.03T in the presence of 2.5 mM ARL-15896 (AdooQ Bioscience, Irvine Calif.). To prepare the cells for an experiment, they were rinsed with Dulbecco's PBS (Ca^2+ and Mg^2+ free) and detached from the flask with TrypLE™ Express (Life Technologies, Carlsbad, Calif.) using the manufacturer's recommended methods. Cells collected from the flask were washed twice in Ca^2+/Mg^2+-free Hanks Balanced Salt Solution+20 mM HEPES (HBSS), and counted and assessed for viability with trypan blue. Washed cells were then dye-loaded by resuspending in Fluo-8/AM calcium sensitive dye plus Component B (AAT Bioquest, Sunnyvale, Calif.) diluted in HBSS. To allow cells to take up fluo-8 dye, they were incubated in the dark for 15 min at 37° C., followed by 30 min at 22-25° C. After dye-loading, cells were washed and resuspended in HBSS and plated in 384-well plates (Falcon 353962; Corning, Big Flats, N.Y.) at 20,000-30,000 cells/well in a final volume of 25 μl/well. The cell plates were centrifuged at 200×g, for 2 minutes at 21° C., to create a monolayer of cells at the bottom of the wells.
To initiate an assay, 10 μl of test compound or buffer was added to each well of the cell plate and pre-incubated for 10 minutes in the dark. After 10 minutes, the cell plate was placed in a FDSS 6000 plate reader (Hamamatsu Photonics, Middlesex, N.J.); baseline fluorescence readings were collected for 20 seconds. Next, 25 μl of agonist solution (3 μM glutamate, 3 μM glycine, and 1 mM Ca^2+ in HBSS) was added and the change in fluorescence was recorded for 3 minutes.
Results were calculated by comparing the effects of test compounds to that of the literature standard GluN2C/D PAM CIQ (100 uM). The increase in fluorescence in the presence of CIQ minus the increase induced by glutamate+glycine alone was set to 100%. Responses induced by compounds that were larger than gain the presence of the standard concentration of CIQ were greater than 100% and lesser responses were less than 100%.

T1 sequence (O15399 28-1336, other chains not shown): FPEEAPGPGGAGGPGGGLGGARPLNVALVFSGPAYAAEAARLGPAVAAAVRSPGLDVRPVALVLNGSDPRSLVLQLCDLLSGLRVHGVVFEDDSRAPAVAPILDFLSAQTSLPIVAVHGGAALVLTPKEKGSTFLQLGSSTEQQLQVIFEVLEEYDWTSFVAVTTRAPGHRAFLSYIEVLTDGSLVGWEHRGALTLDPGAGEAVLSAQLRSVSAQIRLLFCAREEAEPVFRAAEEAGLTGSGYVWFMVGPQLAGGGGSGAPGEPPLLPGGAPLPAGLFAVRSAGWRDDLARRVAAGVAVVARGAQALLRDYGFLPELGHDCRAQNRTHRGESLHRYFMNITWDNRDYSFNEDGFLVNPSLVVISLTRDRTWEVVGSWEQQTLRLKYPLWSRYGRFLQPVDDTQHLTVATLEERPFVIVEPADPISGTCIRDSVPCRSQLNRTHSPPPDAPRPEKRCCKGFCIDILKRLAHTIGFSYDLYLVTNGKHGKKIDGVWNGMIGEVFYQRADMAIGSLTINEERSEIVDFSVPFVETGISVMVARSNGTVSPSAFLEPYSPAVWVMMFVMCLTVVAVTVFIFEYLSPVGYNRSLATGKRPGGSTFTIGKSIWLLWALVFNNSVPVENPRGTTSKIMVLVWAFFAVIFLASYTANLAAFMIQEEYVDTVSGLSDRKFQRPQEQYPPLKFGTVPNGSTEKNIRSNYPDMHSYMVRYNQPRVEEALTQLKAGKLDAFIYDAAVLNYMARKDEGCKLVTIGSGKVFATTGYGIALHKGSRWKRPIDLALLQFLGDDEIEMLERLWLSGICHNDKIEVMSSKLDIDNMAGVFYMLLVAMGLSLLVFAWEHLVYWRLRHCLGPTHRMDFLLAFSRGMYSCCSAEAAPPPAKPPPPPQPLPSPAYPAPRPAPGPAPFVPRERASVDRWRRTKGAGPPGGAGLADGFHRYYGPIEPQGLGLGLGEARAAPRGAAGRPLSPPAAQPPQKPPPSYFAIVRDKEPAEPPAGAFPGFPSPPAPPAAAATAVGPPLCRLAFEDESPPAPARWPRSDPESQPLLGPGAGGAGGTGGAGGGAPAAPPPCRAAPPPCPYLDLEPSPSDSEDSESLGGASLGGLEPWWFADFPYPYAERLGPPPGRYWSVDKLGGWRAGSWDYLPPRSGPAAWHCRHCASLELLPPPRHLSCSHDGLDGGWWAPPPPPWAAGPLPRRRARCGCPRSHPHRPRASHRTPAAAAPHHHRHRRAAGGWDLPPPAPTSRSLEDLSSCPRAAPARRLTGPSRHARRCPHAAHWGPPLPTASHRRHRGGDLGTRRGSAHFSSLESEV

With CC(C)(C)c1ccc(-c2nc3n(c(=O)c2C#N)CC2(CC2)CS3)cc1 [Example 203, 8′-(4-tert-butylphenyl)-6′-oxo-4′,6′-dihydro-2′H-spiro[cyclopropane-1,3′-pyrimido[2,1-b][1,3]thiazine]-7′-carbonitrile] the Emax was 100 to 200%.

These compounds were tested against T2, human GRIN1 (transcript variant NR1-3) and GRIN2D expressed in Xenopus oocytes (Homo sapiens, UniProt O15399) (assay: NR2D oocyte potentiation assay (two-electrode voltage clamp)). Conditions: 10 uM test compound; glutamate and glycine 10 μM each; holding potential −40 mV.
T2 construct: GenScript (GRIN2D synthesis) SC115601; host or cells: Xenopus oocytes injected with cRNA (1 GluN1 : 2 GluN2)
Assay type: cell-based
Summary of the method: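 Xenopus oocytes were defolliculated with collagenase, then injected with 50 nL of cRNA encoding human GluN1 (NR1-3 variant) and GluN2D mixed 1:2 and kept 72 h at 16° C. Two-electrode voltage clamp at −40 mV recorded currents; after 10 μM glutamate plus 10 μM glycine reached plateau, test compound was added until a new plateau formed.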

T2 sequence (O15399 28-1336, other chains not shown): as above

CC1CSc2nc(-c3cnc(C(C)(C)C)c(F)c3)c(C#N)c(=O)n2C1 (stereo not drawn) [Example 76, 8-(6-(tert-butyl)-5-fluoropyridin-3-yl)-3-methyl-6-oxo-3,4-dihydro-2H,6H-pyrimido[2,1-b][1,3]thiazine-7-carbonitrile] and CC1CSc2nc(-c3cnc(C(C)(C)C)c(Br)c3)c(C#N)c(=O)n2C1 (stereo not drawn) [Example 58, 8-(5-bromo-6-(tert-butyl)pyridin-3-yl)-3-methyl-6-oxo-3,4-dihydro-2H,6H-pyrimido[2,1-b][1,3]thiazine-7-carbonitrile] cannot be ordered by activation at 10 µM: > 1000% for the first, > 1000% for the second.

CC(C)(C)c1ccc(-c2nc3ccccn3c(=O)c2C#N)cn1 [Example 19, 2-(6-(tert-butyl)pyridin-3-yl)-4-oxo-4H-pyrido[1,2-a]pyrimidine-3-carbonitrile] and Cc1ccc2nc(-c3ccc(C(C)(C)C)nc3)c(C#N)c(=O)n2c1 [Example 21, 2-(6-(tert-butyl)pyridin-3-yl)-7-methyl-4-oxo-4H-pyrido[1,2-a]pyrimidine-3-carbonitrile] fall in the same range of activation at 10 µM: 100 to 500% for the first, 100 to 500% for the second.

C=Cc1c(-c2ccc(C(C)(C)C)cc2)nc2n(c1=O)CCCS2 [Example 32, 8-(4-(tert-butyl)phenyl)-7-vinyl-3,4-dihydro-2H,6H-pyrimido[2,1-b][1,3]thiazin-6-one] and C=Cc1c(-c2ccc(C(C)(C)C)nc2)nc2n(c1=O)CCCS2 [Example 33, 8-(6-tert-butylpyridin-3-yl)-7-ethenyl-2H, 3H,4H,6H-pyrimido [2,1-b][1,3] thiazin-6-one] fall in the same range of activation at 10 µM: 10 to 100% for the first, 10 to 100% for the second.

Compared with CC1CSc2nc(-c3cccnc3C34CC(C3)C4)c(C#N)c(=O)n2C1 (stereo not drawn) [Example 149, 8-(2-(bicyclo[1.1.1]pentan-1-yl)pyridin-3-yl)-3-methyl-6-oxo-3,4-dihydro-2H,6H-pyrimido[2,1-b][1,3]thiazine-7-carbonitrile], C[C@H]1CSc2nc(-c3cnc(C(C)(C)C)c(O)c3)c(C#N)c(=O)n2C1 [Example 139, (R)-8-(6-(tert-butyl)-5-hydroxypyridin-3-yl)-3-methyl-6-oxo-3,4-dihydro-2H,6H-pyrimido[2,1-b][1,3]thiazine-7-carbonitrile] is higher in activation at 10 µM: < 10% for the first, > 1000% for the second.

CC1CSc2nc(-c3ccc(C4(C)CC4(F)F)nc3)c(C#N)c(=O)n2C1 (stereo not drawn) [Example 111, 8-[6-(2,2-difluoro-1-methyl-cyclopropyl)pyridin-3-yl]-3-methyl-6-oxo-2H,3H,4H,6H-pyimido[2,1-b] [1,3]thiazine-7-carbonitrile] and CC1(c2ccc(-c3nc4n(c(=O)c3C#N)CCCS4)cn2)CC1 [Example 109, 8-[6-(1-methyl-cyclopropyl)pyridin-3-yl]-6-oxo-2H,3H, 4H,6H-pyrimido[2,1-b] [1,3]thiazine-7-carbonitrile] fall in the same range of activation at 10 µM: 500 to 1000% for the first, 500 to 1000% for the second.

CC(C)(C)c1ncc(-c2nc3n(c(=O)c2C#N)CC(CF)CS3)cn1 (stereo not drawn) [Example 91, 8-(2-(tert-butyl)pyrimidin-5-yl)-3-(fluoromethyl)-6-oxo-3,4-dihydro-2H,6H-pyrimido[2,1-b][1,3]thiazine-7-carbonitrile] and C[C@@H]1CSc2nc(-c3cnc(C(C)(C)C)nc3)c(C#N)c(=O)n2C1 [Example 74, (S)-8-(2-(tert-butyl)pyrimidin-5-yl)-3-methyl-6-oxo-3,4-dihydro-2H,6H-pyrimido[2,1-b][1,3]thiazine-7-carbonitrile] fall in the same range of activation at 10 µM: 500 to 1000% for the first, 500 to 1000% for the second.

First: CC(C)(C)c1ccc(-c2nc3n(c(=O)c2C#N)CC=CCS3)cn1 [Example 2, 2-(6-(tert-butyl)pyridin-3-yl)-4-oxo-6,9-dihydro-4H-pyrimido[2,1-b][1,3]thiazepine-3-carbonitrile]
Second: CC(C)(C)c1ccc(-c2nc3n(c(=O)c2C#N)CCS3)cn1 [Example 1, 7-(6-(tert-butyl)pyridin-3-yl)-5-oxo-2,3-dihydro-5H-thiazolo[3,2-a]pyrimidine-6-carbonitrile]
The activation at 10 µM of the first is lower: 10 to 100% for the first, 100 to 500% for the second.

First: CC1CSc2nc(-c3ccc(C4(C(F)(F)F)CC4)cc3)c(C#N)c(=O)n2C1 (stereo not drawn) [Example 46, 3-methyl-6-oxo-8-(4-(1-(trifluoromethyl)cyclopropyl)phenyl)-3,4-dihydro-2H,6H-pyrimido[2,1-b][1,3]thiazine-7-carbonitrile]
Second: CSc1cc(-c2nc3n(c(=O)c2C#N)CC(C)CS3)cnc1C(C)(C)C (stereo not drawn) [Example 61, 8-(6-(tert-butyl)-5-(methylthio)pyridin-3-yl)-3-methyl-6-oxo-3,4-dihydro-2H,6H-pyrimido[2,1-b][1,3]thiazine-7-carbonitrile]
The activation at 10 µM of the first is lower: 100 to 500% for the first, > 1000% for the second.

Compared with CC(C)(C)c1ncc(-c2nc3n(c(=O)c2C#N)CC(CO)CS3)cc1F (stereo not drawn) [Example 92, 8-(6-(tert-butyl)-5-fluoropyridin-3-yl)-3-(hydroxymethyl)-6-oxo-3,4-dihydro-2H,6H-pyrimido[2,1-b][1,3]thiazine-7-carbonitrile], CN(C)CC1CSc2nc(-c3cnc(C(C)(C)C)c(F)c3)c(C#N)c(=O)n2C1 (stereo not drawn) [Example 160, 8-(6-(tert-butyl)-5-fluoropyridin-3-yl)-3-((dimethylamino)methyl)-6-oxo-3,4-dihydro-2H,6H-pyrimido[2,1-b][1,3]thiazine-7-carbonitrile] is lower in activation at 10 µM: > 1000% for the first, 10 to 100% for the second.

First: CC1CSc2cc(-c3ccc(C(C)(C)C)nc3)c(C#N)c(=O)n2C1 (stereo not drawn) [Example 69, 8-(6-(tert-butyl)pyridin-3-yl)-3-methyl-6-oxo-3,4-dihydro-2H,6H-pyrido[2,1-b][1,3]thiazine-7-carbonitrile]
Second: Cc1csc2nc(-c3ccc(C(C)(C)C)nc3)c(C#N)c(=O)n12 [Example 35, 7-(6-(tert-butyl)pyridin-3-yl)-3-methyl-5-oxo-5H-thiazolo[3,2-a]pyrimidine-6-carbonitrile]
The activation at 10 µM of the first is higher: > 1000% for the first, 100 to 500% for the second.

Compared with CN(C)C(=O)C1CSc2nc(-c3cnc(C(C)(C)C)c(F)c3)c(C#N)c(=O)n2C1 (stereo not drawn) [Example 161, 8-(6-(tert-butyl)-5-fluoropyridin-3-yl)-7-cyano-N,N-dimethyl-6-oxo-3,4-dihydro-2H,6H-pyrimido[2,1-b][1,3]thiazine-3-carboxamide], CC(C)(C#N)c1ccc(-c2nc3n(c(=O)c2C#N)CCCS3)cn1 [Example 78, 8-(6-(2-cyanopropan-2-yl)pyridin-3-yl)-6-oxo-3,4-dihydro-2H,6H-pyrimido[2,1-b][1,3]thiazine-7-carbonitrile] is lower in activation at 10 µM: 100 to 500% for the first, 10 to 100% for the second.

Compared with CC1(c2ncc(-c3cc4n(c(=O)c3C#N)CCCS4)cc2F)CC1 [Example 136, 8-[5-fluoro-6-(1-methyl-cyclopropyl)pyridin-3-yl]-6-oxo-2H,3H,4H,6H-pyrido [2,1-b][1,3] thiazine-7-carbonitrile], CC(C)(C)c1ccc(-c2nc3n(c(=O)c2Br)CCCS3)cn1 [Example 30, 7-bromo-8-(6-(tert-butyl)pyridin-3-yl)-3,4-dihydro-2H,6H-pyrimido[2,1-b][1,3]thiazin-6-one] is lower in activation at 10 µM: > 1000% for the first, 100 to 500% for the second.

CC(C)(C)c1ccc(-c2nc3n(c(=O)c2C#N)CN(c2ccccc2)CS3)cc1 [Example 5, 8-(4-(tert-butyl)phenyl)-6-oxo-3-phenyl-3,4-dihydro-2H,6H-pyrimido[2,1-b][1,3,5]thiadiazine-7-carbonitrile] gave an activation at 10 µM of 10 to 100%.

In the case of CC1CSc2nc(-c3ccc(N4CC(F)(F)C4)nc3)c(C#N)c(=O)n2C1 (stereo not drawn) [Example 56, 8-(6-(3,3-difluoroazetidin-1-yl)pyridin-3-yl)-3-methyl-6-oxo-3,4-dihydro-2H,6H-pyrimido[2,1-b][1,3]thiazine-7-carbonitrile], the “NR2D Oocyte % Potentiation @ 10 uM” value is reported as “Inhibitor”.
